Experimental findings from ChEMBL document CHEMBL1135808, “A new type of mixed anhydride and its applications to the synthesis of 7-substituted 8-chloro-5,5-dioxoimidazo[1,2-b][1,4,2]benzodithiazines with in vitro antitumor activity” (2002) are described below.

Common to all, as to format: functional
Holding throughout (conditions): Homo sapiens, read-out: Log LC50 (the source's name) (converted)

One assay concerns SNB-75. The assay is described as follows: Log of molar concentration leading to 50% cell death against CNS cancer SNB-75 cell line was reported.
Another assay concerns K562. The assay is described as follows: Log of molar concentration leading to 50% cell death against leukemia K-562 cell line was reported.
The subject of the next assay is ACHN. The assay is described as follows: Log of molar concentration leading to 50% cell death against renal cancer ACHN cell line was reported.
The next assay has as its system HOP-92. Kind of assay: Log of molar concentration leading to 50% cell death against non-small-cell lung cancer HOP-92 cell line was reported.

As to `O=C(Nc1nccs1)c1cc2c(cc1Cl)Sc1nccn1S2(=O)=O`, the CC50 in the assay with SNB-75 is 66.1 µM; with K562 it was 87.1 µM; with ACHN, 58.9 µM.
With `O=C(Nc1cccc2nsnc12)c1cc2c(cc1Cl)Sc1nccn1S2(=O)=O`, in the assay with HOP-92, the CC50 was 95.5 µM.
